Broadly, the logP is a log measure of how a compound divides between an organic and an aqueous phase. The logD is lipophilicity at a set pH, counting ionised and neutral species.

Each structure is given as a SMILES string.

The first series in a line: method code SF-HPLC, from Marrel, C.; Boss, G.; Van, H.; Testa, B.; Cooper, D.; Jenner, P.; Marsden, C. (1985). L-DOPA esters as potential prodrugs. Part. I. Physicochemical properties. Eur J Med Chem, 20(5)459-465.
Conditions: not given
Take `CC(O)COC(=O)[C@@H](N)Cc1ccc(O)c(O)c1` (stereo not given in full): the logP was -0.49.
Still for that read-out and setting: as for `N[C@@H](Cc1ccc(O)c(O)c1)C(=O)OCC1CCCCO1` (stereo not given in full), the figure is 0.47; as for `COCC(C)OC(=O)[C@@H](N)Cc1ccc(O)c(O)c1` (stereo not given in full), 0.08.

The same series, now with this note: pH 7.4.
Consider `COc1ccc(CCOC(=O)[C@@H](N)Cc2ccc(O)c(O)c2)cc1`, for which the logD amounted to 1.5.
Turning to `N[C@@H](Cc1ccc(O)c(O)c1)C(=O)OCCc1ccc(Cl)cc1`, the logD was 2.12.
Still for that read-out and setting: the same measure for `CCCOC(=O)[C@@H](N)Cc1ccc(O)c(O)c1`: 0.55; for `N[C@@H](Cc1ccc(O)c(O)c1)C(=O)OCCc1ccccc1`: 1.57; for `N[C@@H](Cc1ccc(O)c(O)c1)C(=O)OCCOc1ccccc1`: 1.35.
As to `CCOC(=O)[C@@H](N)Cc1ccc(O)c(O)c1`, the logD was 0.01.
Take `N[C@@H](Cc1ccc(O)c(O)c1)C(=O)OC1CCCCC1`: the pH-dependent lipophilicity (logD) was determined as 1.53.
